Assay results as given in patent US9700043B2, “Corrosive ingredient(s)-containing compositions having reduced toxicity and method of obtaining” (S. C. Johnson & Son, Inc., priority 2014, dated 2017).

Tested on: bovine cornea
Experiment: Bovine cornea opacity and permeability (BCOP) ocular irritation assay
Conditions: mean data, Conc. neat, exposure time 10 minutes
Procedure: Products including one or more ingredients which are corrosive in nature and present in a product at a level which normally cause ocular irritation are modified to have reduced ocular irritation without replacing the corrosive ingredient(s) and without reducing the amount of the corrosive ingredient(s) used in a product. The level of corrosiveness or the hazards of a product is determined under EPA regulations. EPA toxicity testing is based on determining the level of ocular irritation caused by a product. This EPA standard is used herein to evidence the reduced corrosive nature of products of the invention. The test used is the bovine cornea opacity and permeability (BCOP) method which is an Organization for Economic Co-operation and Development (OECD) validated method for assessing ocular irritation and has recently been accepted by the EPA as an alternative to the traditional Draize animal test. The BCOP test method is described in the “OECD Guidelines For The Testing Of Chemicals”, No. 437, adopted Jul. 26, 2013 and entitled “Bovine Corneal Opacity and Permeability Test Method for Identifying i) Chemicals Inducing Serious Eye Damage and ii) Chemicals Not Requiring Classification for Eye Irritation or Serious Eye Damage”. […]
Step 3—Initial Opacity. The cMEM is removed and refilled and the initial opacity is read on an opacitometer. […]
Step 5—Rinsing. Corneas are rinsed thoroughly to remove the test substance and incubated for two (2) hours before a final opacity reading. […]
Formulas of the same ingredients as in Example 4 were also tested with lower or higher amounts of CARBOPOL® EZ-2 with respective adjustments in the water concentration. […] The viscosities of the 0.25% solution was ˜4 cps, of the 0.55% solution ˜10 cps, of the 0.75% solution ˜200 cps, of the 1.0% solution (shown above) ˜8,000 cps, (each of the former being measured by Brookfield LVT, spindle 1, speed 30 rpm) and of the 1.25% solution ˜18,700 cps (being measured by Brookfield LVT, spindle 4, speed 30 rpm). […]

For `CCO` [Ethanol (Control), Ethanol], the “OD490 Value” (fluorescein permeability) was 0.899, the “Opacity Value” (n=3 corneas per sample) was 28.7 and the “In Vitro Score” value (EPA: score ≧75 = Category I) was 42.2.
